# Test system: Symmetric di-Methyl Arginine in Z-138 cells
# Assay: Z-138 Methylation Assay (In Cell Western for symmetric di-methyl arginine)
# Assay type: cell-based
# Settings: Homo sapiens, 96 hours incubation, symmetric di-methyl arginine normalised to DNA content, read-out: ICW EC50
# Method in brief: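 Z-138 cells were treated with compound for 96 h at 37 °C, then fixed on poly-D-lysine plates. Symmetric di-methyl arginine was detected by In-Cell Western (800 nm) with DRAQ5 DNA normalisation (700 nm). Percent inhibition used DMSO and 3 μM reference-compound controls; IC50 curves came from triplicate wells.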
row,Structure (SMILES),EC50
1,CC(=O)N1CCC(Nc2cc(C(=O)NC[C@H](O)CN3CCc4sc(C)nc4C3)ncn2)CC1 [Compound 1-36],> 1 µM
2,CC(=O)N1CC(Nc2cc(C(=O)NC[C@H](O)CN3CCc4cnccc4C3)ncn2)C1 [Compound 2-16],> 1 µM
3,"CC(=O)N1CCC(Nc2cc(C(=O)NC[C@H](O)CN3CCc4scc(C)c4C3)ccn2)CC1 [Compound 1-14, (S)-2-((1-acetylpiperidin-4-yl)amino)-N-(2-hydroxy-3-(3-methyl-6,7-dihydrothieno[3,2-c]pyridin-5(4H)-yl)propyl)isonicotinamide]",< 0.1 µM
4,"CC(=O)N1CCC(Nc2cc(C(=O)NC[C@H](O)CN3CCc4ccncc4C3)ccn2)CC1 [Compound 2-19, (S)-2-((1-acetylpiperidin-4-yl)amino)-N-(3-(3,4-dihydro-2,7-naphthyridin-2(1H)-yl)-2-hydroxypropyl)isonicotinamide]",> 1 µM
5,"CC(=O)N1CCC(Nc2cc(C(=O)NC[C@H](O)CN3CCc4oc(C)nc4C3)ccn2)CC1 [Compound 4-4, (S)-2-((1-acetylpiperidin-4-yl)amino)-N-(2-hydroxy-3-(2-methyl-6,7-dihydrooxazolo[4,5-c]pyridin-5(4H)-yl)propyl)isonicotinamide]",> 1 µM
6,CC(=O)N1CCC(Nc2cc(C(=O)NC[C@H](O)CN3CCc4sc(N)nc4C3)ncn2)CC1 [Compound 1-37],> 1 µM
7,Cc1nc2c([nH]1)CCN(C[C@@H](O)CNC(=O)c1cc(NC3COC3)ncn1)C2 [Compound 3-41],> 1 µM
8,"CC(=O)N1CCC(Nc2cc(C(=O)NC[C@H](O)CN3CCc4oc(C)nc4C3)ncn2)CC1 [Compound 4-3, (S)-6-((1-acetylpiperidin-4-yl)amino)-N-(2-hydroxy-3-(2-methyl-6,7-dihydrooxazolo[4,5-c]pyridin-5(4H)-yl)propyl)pyrimidine-4-carboxamide]",> 1 µM
9,"O=C(NC[C@H](O)CN1CCc2sccc2C1)c1cc(NC2COC2)ncn1 [Compound 1-1, (S)—N-(3-(6,7-dihydrothieno[3,2-c]pyridin-5(4H)-yl)-2-hydroxypropyl)-6-(oxetan-3-ylamino)pyrimidine-4-carboxamide]",< 0.1 µM
10,"CC(=O)N1CC(Nc2cc(C(=O)NC[C@H](O)CN3CCc4scc(C)c4C3)ncn2)C1 [Compound 1-12, (S)-6-((1-acetylazetidin-3-yl)amino)-N-(2-hydroxy-3-(3-methyl-6,7-dihydrothieno[3,2-c]pyridin-5(4H)-yl)propyl)pyrimidine-4-carboxamide]",< 0.1 µM
11,CC(=O)N1CCC(Nc2cc(C(=O)NC[C@H](O)CN3CCc4[nH]ncc4C3)ccn2)CC1 [Compound 3-21],> 1 µM
12,"O=C(NC[C@H](O)CN1CCc2[nH]nc(-c3ccccc3)c2C1)c1cc(NC2COC2)ncn1 [Compound 3-17, (S)—N-(2-hydroxy-3-(3-phenyl-6,7-dihydro-1H-pyrazolo[4,3-c]pyridin-5(4H)-yl)propyl)-6-(oxetan-3-ylamino)pyrimidine-4-carboxamide]",> 1 µM
13,"CC(=O)N1CCC(Nc2cc(C(=O)NC[C@H](O)CN3CCc4ncccc4C3)ccn2)CC1 [Compound 2-20, (S)-2-((1-acetylpiperidin-4-yl)amino)-N-(3-(7,8-dihydro-1,6-naphthyridin-6(5H)-yl)-2-hydroxypropyl)isonicotinamide]",0.101 to 1 µM
